Assay results from patent EP4660182A1, “NAV1.7- AND/OR NAV1.8-INHIBITING ARYL PYRIDINE COMPOUNDS, PROCESSES FOR THE PREPARATION THEREOF, COMPOSITIONS, USES, METHODS FOR TREATMENT USING SAME, AND KITS” (Eurofarma Laboratórios S.A., priority 2023, dated 2024).

What was measured:
[1] = target: T1, human sodium channels Nav 1.7 (Homo sapiens, UniProt Q15858); test: Automated whole-cell voltage-clamp (ScreenPatch 384P) sodium current block, Nav 1.7; format: cell-based; details: CHO cells stably expressing human Nav 1.7; inactivation step -40 mV 8 s, test step 0 mV (TP1A); eight concentrations; exposure at least five minutes; room temperature; read-out: Nav1.7 IC50
T1 construct: expressed in transfected cells
T1 sequence (Q15858 whole entry): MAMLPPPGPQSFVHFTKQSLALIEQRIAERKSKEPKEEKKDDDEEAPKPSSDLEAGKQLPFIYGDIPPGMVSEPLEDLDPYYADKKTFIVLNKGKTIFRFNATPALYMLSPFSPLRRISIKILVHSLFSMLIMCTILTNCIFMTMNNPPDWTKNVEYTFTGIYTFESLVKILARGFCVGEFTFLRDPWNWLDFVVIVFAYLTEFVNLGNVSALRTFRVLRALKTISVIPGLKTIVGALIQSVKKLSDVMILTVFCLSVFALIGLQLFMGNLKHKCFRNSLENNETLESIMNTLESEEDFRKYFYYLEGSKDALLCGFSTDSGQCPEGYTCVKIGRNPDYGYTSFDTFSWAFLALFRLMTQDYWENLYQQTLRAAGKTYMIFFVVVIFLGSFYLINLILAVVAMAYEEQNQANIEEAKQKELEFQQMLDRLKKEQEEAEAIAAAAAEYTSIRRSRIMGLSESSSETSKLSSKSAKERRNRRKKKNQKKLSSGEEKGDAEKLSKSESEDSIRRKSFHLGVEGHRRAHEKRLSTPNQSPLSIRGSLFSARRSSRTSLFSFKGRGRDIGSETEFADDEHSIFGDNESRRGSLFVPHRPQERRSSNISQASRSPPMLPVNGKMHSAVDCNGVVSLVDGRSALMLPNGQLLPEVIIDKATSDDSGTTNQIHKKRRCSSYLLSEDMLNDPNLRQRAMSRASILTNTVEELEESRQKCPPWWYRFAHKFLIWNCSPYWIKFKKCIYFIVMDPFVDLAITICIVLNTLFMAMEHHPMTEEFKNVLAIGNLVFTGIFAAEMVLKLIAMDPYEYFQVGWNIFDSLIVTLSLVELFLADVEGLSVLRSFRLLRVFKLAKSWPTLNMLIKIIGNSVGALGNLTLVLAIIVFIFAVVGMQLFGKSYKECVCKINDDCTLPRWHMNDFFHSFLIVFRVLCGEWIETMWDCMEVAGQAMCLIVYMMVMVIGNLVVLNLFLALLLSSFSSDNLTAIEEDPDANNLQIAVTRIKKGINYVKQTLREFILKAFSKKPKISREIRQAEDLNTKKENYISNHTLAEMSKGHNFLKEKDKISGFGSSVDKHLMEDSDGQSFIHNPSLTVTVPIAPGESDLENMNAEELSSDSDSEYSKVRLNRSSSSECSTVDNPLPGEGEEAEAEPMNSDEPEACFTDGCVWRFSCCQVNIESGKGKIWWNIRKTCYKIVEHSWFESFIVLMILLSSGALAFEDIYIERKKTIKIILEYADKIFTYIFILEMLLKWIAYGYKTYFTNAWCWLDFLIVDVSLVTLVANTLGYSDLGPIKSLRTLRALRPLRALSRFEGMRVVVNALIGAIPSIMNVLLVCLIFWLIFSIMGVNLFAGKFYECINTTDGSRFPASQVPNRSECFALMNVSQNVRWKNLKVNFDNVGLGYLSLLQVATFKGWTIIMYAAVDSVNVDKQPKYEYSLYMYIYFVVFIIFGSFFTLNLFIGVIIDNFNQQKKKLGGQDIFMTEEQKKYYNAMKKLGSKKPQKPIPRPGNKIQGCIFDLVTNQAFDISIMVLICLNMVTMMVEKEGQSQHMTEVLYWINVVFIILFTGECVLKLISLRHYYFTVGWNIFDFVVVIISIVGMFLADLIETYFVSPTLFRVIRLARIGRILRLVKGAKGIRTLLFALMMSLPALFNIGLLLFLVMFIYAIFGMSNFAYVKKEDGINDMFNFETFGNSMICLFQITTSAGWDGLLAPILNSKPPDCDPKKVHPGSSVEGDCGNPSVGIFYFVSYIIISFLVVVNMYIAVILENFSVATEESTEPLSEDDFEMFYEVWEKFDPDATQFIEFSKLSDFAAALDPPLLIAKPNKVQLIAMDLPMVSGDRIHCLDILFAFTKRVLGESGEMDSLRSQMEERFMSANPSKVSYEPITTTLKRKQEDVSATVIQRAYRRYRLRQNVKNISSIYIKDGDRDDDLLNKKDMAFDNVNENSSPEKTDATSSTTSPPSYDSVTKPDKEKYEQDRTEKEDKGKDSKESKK
Procedure: (§1) Biological assays were performed on Chinese hamster ovary (CHO) cells that express human sodium channels Nav 1.8 or Nav 1.7 in a stable manner.
(§2) The experimental protocol voltage-clamp using the whole cell configuration was established on the automated ScreenPatch® 384P platform (SP384PE, Nanion Technologies, Livingston, NJ) and the results were recorded with a Nanion 384-well Patch Clamp chip (NPC) (Nanion Technologies, Livingston, NJ).
(§3) Formula I compounds were diluted in eight concentrations in the extracellular solution composed of saline solution, buffered with HEPES (mM): NaCl, 137; KCl, 4; CaCl2, 3,8; MgCl2, 1; HEPES, 10; Glucose, 10; pH 7.4. The […], 50; CsF, 90; MgCl2, 5; EGTA, 5; HEPES, 10; pH 7.2. The duration of exposure of each compound with cells expressing Nav 1.7 or Nav 1.8 was at least five minutes and the assays were performed at room temperature.
(§4) The measurements of the sodium currents of Nav 1.8 and Nav 1.7 were obtained using the voltage protocol described below.
(§5) A holding voltage of -100 mV was established followed by an inactivation voltage step at -40 mV for 8 seconds, followed by a step of -100 mV for 20 ms, followed by a 20 ms step for 10 mV for Nav 1.8 or 0 mV for Nav 1.7 (TP1A) before returning to the holding voltage of -100 mV.
(§6) The protocol was repeated at a frequency of 0.05 Hz and the amplitude of the current was quantified throughout the recording of the TP1A phase. The variation in the amplitude of the peak current was evaluated according to the formula described below, after exposing the cells expressing the channels to each concentration of the different compounds: % Block = (1−(ITP1A,molecule/ITP1A,basal)×100%, [formula] wherein ITP1A,basal and ITP1A,molecule represent the peaks of sodium current input into TP1A before exposure to the compound and in the presence of the compound, respectively.
(§7) Data were obtained by nonlinear regression (nonlinear least squares) with XLfit for Excel (Microsoft, Redmond, WA).
(§8) The compounds were tested in at least one assay to obtain the value of CI50. For compounds that were tested in two or more assays, the results are described as the means of the CI50 values.

[2] = target: T2, human sodium channels Nav 1.8 (Homo sapiens, UniProt Q9Y5Y9); test: Automated whole-cell voltage-clamp (ScreenPatch 384P) sodium current block, Nav 1.8; format: cell-based; details: CHO cells stably expressing human Nav 1.8; inactivation step -40 mV 8 s, test step 10 mV (TP1A); eight concentrations; exposure at least five minutes; room temperature; read-out: Nav1.8 IC50
T2 construct: expressed in transfected cells
T2 sequence (Q9Y5Y9 whole entry): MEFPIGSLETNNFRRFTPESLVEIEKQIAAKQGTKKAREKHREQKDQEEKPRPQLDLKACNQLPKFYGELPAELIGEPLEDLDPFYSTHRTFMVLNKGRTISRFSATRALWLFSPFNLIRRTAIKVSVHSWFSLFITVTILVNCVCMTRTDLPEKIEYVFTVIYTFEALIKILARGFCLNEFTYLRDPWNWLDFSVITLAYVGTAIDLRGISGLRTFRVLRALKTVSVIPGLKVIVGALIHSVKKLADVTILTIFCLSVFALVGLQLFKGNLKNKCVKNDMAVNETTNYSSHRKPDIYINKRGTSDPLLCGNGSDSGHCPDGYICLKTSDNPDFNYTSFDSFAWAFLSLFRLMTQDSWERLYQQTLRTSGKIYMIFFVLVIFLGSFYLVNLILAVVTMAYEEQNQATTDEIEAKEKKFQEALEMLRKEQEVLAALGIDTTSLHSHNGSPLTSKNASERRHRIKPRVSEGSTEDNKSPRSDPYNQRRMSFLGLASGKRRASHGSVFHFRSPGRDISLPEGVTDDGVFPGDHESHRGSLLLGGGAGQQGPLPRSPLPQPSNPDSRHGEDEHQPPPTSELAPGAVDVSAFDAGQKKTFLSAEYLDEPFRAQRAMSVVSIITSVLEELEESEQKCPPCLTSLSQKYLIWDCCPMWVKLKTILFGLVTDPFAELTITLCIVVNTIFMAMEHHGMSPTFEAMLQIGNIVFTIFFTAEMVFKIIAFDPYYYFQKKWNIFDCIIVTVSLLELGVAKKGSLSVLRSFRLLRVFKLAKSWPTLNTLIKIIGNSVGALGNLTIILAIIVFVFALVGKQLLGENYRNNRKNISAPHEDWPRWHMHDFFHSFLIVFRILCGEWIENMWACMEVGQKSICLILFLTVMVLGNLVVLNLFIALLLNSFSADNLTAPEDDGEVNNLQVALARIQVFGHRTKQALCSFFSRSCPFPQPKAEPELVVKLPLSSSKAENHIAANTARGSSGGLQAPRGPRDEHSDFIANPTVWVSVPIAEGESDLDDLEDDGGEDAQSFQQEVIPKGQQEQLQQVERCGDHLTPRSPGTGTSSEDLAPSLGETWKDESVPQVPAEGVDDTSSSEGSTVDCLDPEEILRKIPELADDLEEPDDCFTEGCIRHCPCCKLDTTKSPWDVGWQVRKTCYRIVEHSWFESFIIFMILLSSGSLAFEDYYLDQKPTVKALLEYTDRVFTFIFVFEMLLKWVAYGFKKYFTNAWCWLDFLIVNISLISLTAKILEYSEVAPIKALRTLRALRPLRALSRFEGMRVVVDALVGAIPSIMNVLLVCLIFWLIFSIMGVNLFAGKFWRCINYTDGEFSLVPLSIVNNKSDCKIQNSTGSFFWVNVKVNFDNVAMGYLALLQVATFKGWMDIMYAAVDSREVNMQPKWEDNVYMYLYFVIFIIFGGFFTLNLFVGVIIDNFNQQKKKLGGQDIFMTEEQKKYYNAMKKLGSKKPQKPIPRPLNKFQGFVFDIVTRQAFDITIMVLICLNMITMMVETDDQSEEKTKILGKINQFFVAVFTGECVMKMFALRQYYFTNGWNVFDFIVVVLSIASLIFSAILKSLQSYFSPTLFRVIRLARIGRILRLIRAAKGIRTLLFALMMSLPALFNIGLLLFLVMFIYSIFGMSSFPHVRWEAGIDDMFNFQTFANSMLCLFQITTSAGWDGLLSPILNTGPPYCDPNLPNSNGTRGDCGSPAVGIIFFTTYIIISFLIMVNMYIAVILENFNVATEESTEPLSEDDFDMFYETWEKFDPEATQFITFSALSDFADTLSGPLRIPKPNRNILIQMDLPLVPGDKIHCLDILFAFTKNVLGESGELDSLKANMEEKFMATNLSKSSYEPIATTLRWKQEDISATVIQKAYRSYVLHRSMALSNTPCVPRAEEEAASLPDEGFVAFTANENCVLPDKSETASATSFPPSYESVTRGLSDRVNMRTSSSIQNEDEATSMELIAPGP
Procedure: as §1, §2, §3, §4, §5, §6, §7, §8

| Structure (SMILES) | IC50 [1] [µM] | IC50 [2] [µM] |
| --- | --- | --- |
| CCOc1ccc(-c2cncc(C(=O)N/N=C/c3ccnn3C(C)C)n2)cn1 [Compound 54, (E)-6-(6-ethoxypyridine-3-yl)-N'-((1-isopropyl-1H-pyrazole-5-yl)methylene)pyrazine-2-carbohydrazide] | > 1 | < 0.5 |
| CCOc1ccc(-c2cncc(C(=O)N/N=C/c3cc(OC)cnc3F)n2)cn1 [Compound 7, (E)-6-(6-ethoxypyridine-3-yl)-N'-((2-fluoro-5-methoxypyridine-3-yl)methylene)pyrazine-2-carbohydrazide] | > 1 | < 0.5 |
| O=C(N/N=C/c1cc(O)cnc1F)c1cncc(-c2ccc(OC(F)F)nc2)n1 [Compound 113, (E)-6-(6-(difluoromethoxy)pyridine-3-yl)-N'-((2-fluoro-5-hydroxypyridine-3-yl)methylene)pyrazine-2-carbohydrazide] | > 1 | 0.5 to 1 |
| CCOc1ccc(F)c(/C=N/NC(=O)c2cncc(-c3ccc(OCC)nc3)n2)c1 [Compound 4, (E)-N'-(5-ethoxy-2-fluorobenzylidene)-6-(6-ethoxypyridine-3-yl)pyrazine-2-carbohydrazide] | > 1 | < 0.5 |
| CN(C)c1ccc(F)c(/C=N/NC(=O)c2cncc(-c3ccc(OC(F)(F)F)nc3)n2)c1 [Compound 93, (E)-N'-(5-(dimethylamino)-2-fluorobenzylidene)-6-(6-(trifluoromethoxy)pyridine-3-yl) pyrazine-2-carbohydrazide] | > 1 | < 0.5 |
| CCOc1ccc(-c2cncc(C(=O)N/N=C/c3ccc(F)c(OC)c3)n2)cn1 [Compound 2, (E)-6-(6-ethoxypyridine-3-yl)-N'-(4-fluoro-3-methoxybenzylidene)pyrazine-2-carbohydrazide] | 0.5 to 1 | < 0.5 |
| CC(O)c1cnc(F)c(/C=N/NC(=O)c2cncc(-c3ccc(OC(F)F)nc3)n2)c1 (stereo not drawn) [Compound 112, (E)-6-(6-(difluoromethoxy)pyridine-3-yl)-N'-((2-fluoro-5-(1-hydroxyethyl)pyridine-3-yl)methylene)pyrazine-2-carbohydrazide] | > 1 | 0.5 to 1 |
| CCOc1ccc(-c2nccc(C(=O)N/N=C/c3cc(OC)cnc3F)n2)cn1 [Compound 72, (E)-2-(6-ethoxypyridine-3-yl)-N'-((2-fluoro-5-methoxypyridine-3-yl)methylene) pyrimidine-4-carbohydrazide] | > 1 | < 0.5 |
| CCOc1ccc(-c2cccc(C(=O)N/N=C/c3cc(OC)cnc3F)n2)cn1 [Compound 71, (E) -6'-ethoxy-N'-((2-fluoro-5-methoxypyridine-3-yl)methylene)-[2,3'-bipyridine]-6-carbohydrazide] | 0.5 to 1 | < 0.5 |
| CCOc1ccc(-c2cnc(O)c(C(=O)N/N=C/c3cc(OC)cnc3F)n2)cn1 [Compound 65, (E)-6-(6-ethoxypyridine-3-yl)-N'-((2-fluoro-5-methoxypyridine-3-yl)methylene)-3-hydroxypyrazine-2-carbohydrazide] | > 1 | > 1 |
| COc1ccc(F)c(/C=N/NC(=O)c2cncc(-c3ccc(OCCO)nc3)n2)c1 [Compound 137, (E)-N'-(2-fluoro-5-methoxybenzylidene)-6-(6-(2-hydroxyethoxy)pyridine-3-yl)pyrazine-2-carbohydrazide] | > 1 | > 1 |
| CC(O)c1ccc(F)c(/C=N/NC(=O)c2cncc(-c3ccc(OC(F)F)nc3)n2)c1 (stereo not drawn) [Compound 110, (E)-6-(6-(difluoromethoxy)pyridine-3-yl)-N'-(2-fluoro-5-(1-hydroxyethyl)benzylidene)pyrazine-2-carbohydrazide] | > 1 | < 0.5 |
| CCOc1ccc(-c2cncc(C(=O)N/N=C/c3[nH]ccc3C#N)n2)cn1 [Compound 59, (E)-N'-((3-cyano-1H-pyrrole-2-yl)methylene)-6-(6-ethoxypyridine-3-yl)pyrazine-2-carbohydrazide] | > 1 | > 1 |
| COc1cc(/C=N/NC(=O)c2cncc(-c3ccc(OC(F)F)nc3)n2)c(F)cn1 [Compound 106, (E)-6-(6-(difluoromethoxy)pyridine-3-yl)-N'-((5-fluoro-2-methoxypyridine-4-yl)methylene)pyrazine-2-carbohydrazide] | > 1 | 0.5 to 1 |
| CC(C)Oc1ccc(F)c(/C=N/NC(=O)c2cncc(-c3ccc(OC(F)(F)F)nc3)n2)c1 [Compound 92, (E)-N'-(2-fluoro-5-isopropoxybenzylidene)-6-(6-(trifluoromethoxy)pyridine-3-yl)pyrazine-2-carbohydrazide] | < 0.5 | < 0.5 |
| CCOc1ccc(-c2cncc(C(=O)N/N=C/c3cccc(C(C)O)c3)n2)cn1 (stereo not drawn) [Compound 22, (E)-6-(6-ethoxypyridine-3-yl)-N'-(3-(1-hydroxyethyl)benzylidene)pyrazine-2-carbohydrazide] | > 1 | 0.5 to 1 |
| CCOc1ccc(-c2cncc(C(=O)N/N=C/c3cncn3C(C)C)n2)cn1 [Compound 53, (E)-6-(6-ethoxypyridine-3-yl)-N'-((1-isopropyl-1H-imidazole-5-yl)methylene)pyrazine-2-carbohydrazide] | > 1 | > 1 |
| CCOc1ccc(-c2nc(C(=O)N/N=C/c3cccn3C)cnc2O)cn1 [Compound 69, (E)-6-(6-ethoxypyridine-3-yl)-5-hydroxy-N'-((1-methyl-1H-pyrrole-2-yl)methylene)pyrazine-2-carbohydrazide] | > 1 | > 1 |
| CCOc1ccc(-c2cncc(C(=O)N/N=C/c3cccc(O)n3)n2)cn1 [Compound 40, (E)-6-(6-ethoxypyridine-3-yl)-N'-((6-hydroxypyridine-2-yl)methylene)pyrazine-2-carbohydrazide] | > 1 | > 1 |
| [2H]C([2H])(C)Oc1ccc(-c2cncc(C(=O)N/N=C/c3cc(OC)cnc3F)n2)cn1 [Compound 169, (E)-6-(6-(ethoxy-1,1-d2)pyridine-3-yl)-N'-((2-fluoro-5-methoxypyridine-3-yl)methylene)pyrazine-2-carbohydrazide] | > 1 | < 0.5 |
| CCOc1ccc(-c2cncc(C(=O)N/N=C/c3cc(CN)ccc3F)n2)cn1 [Compound 13, (E)-N'-(5-(aminomethyl)-2-fluorobenzylidene)-6-(6-ethoxypyridine-3-yl)pyrazine-2-carbohydrazide] | > 1 | > 1 |
| COc1cccc(/C=N/NC(=O)c2cncc(-c3ccc(OC(F)(F)F)nc3)n2)c1 [Compound 90, (E)-N'-(3-methoxybenzylidene)-6-(6-(trifluoromethoxy)pyridine-3-yl)pyrazine-2-carbohydrazide] | > 1 | < 0.5 |
| O=C(N/N=C/c1cccc(O)n1)c1cncc(-c2ccc(OC(F)F)nc2)n1 [Compound 115, (E)-6-(6-(difluoromethoxy)pyridine-3-yl)-N'-((6-hydroxypyridine-2-yl)methylene) pyrazine-2-carbohydrazide] | > 1 | > 1 |
| COc1cnc(F)c(/C=N/NC(=O)c2cccc(-c3ccc(OC(F)F)nc3)n2)c1 [Compound 125, (E)-6'-(difluoromethoxy)-N'-((2-fluoro-5-methoxypyridine-3-yl)methylene)-[2,3'-bipyridine]-6-carbohydrazide] | < 0.5 | < 0.5 |
| CCOc1ccc(-c2cncc(C(=O)N/N=C/c3cc(OC)cnc3F)n2)c(OC)n1 [Compound 154, (E)-6-(6-ethoxy-2-methoxypyridine-3-yl)-N'-((2-fluoro-5-methoxypyridine-3-yl)methylene)pyrazine-2-carbohydrazide] | < 0.5 | < 0.5 |
| COc1cc(O)c(F)c(/C=N/NC(=O)c2cncc(-c3ccc(OC(F)F)nc3)n2)c1 [Compound 119, (E)-6-(6-(difluoromethoxy)pyridine-3-yl)-N'-(2-fluoro-3-hydroxy-5-methoxybenzylidene)pyrazine-2-carbohydrazide] | > 1 | 0.5 to 1 |
| O=C(N/N=C/c1ccncc1)c1cncc(-c2ccc(OC(F)(F)F)nc2)n1 [Compound 87, (E)-N'-(pyridine-4-ylmethylene)-6-(6-(trifluoromethoxy)pyridine-3-yl)pyrazine-2-carbohydrazide] | > 1 | > 1 |
